Data from patent US7674819B2 (Warner-Lambert Company LLC, priority 2005, dated 2010).
Where a chain is given by its changes, count along the chain named. Like-named read-outs stand apart in the source and are kept apart here.

Experiments:
hAR = target: T1, hAR (Homo sapiens, UniProt P10275); assay: Competitive binding of 3H-DHT to baculovirus/Sf9 generated hAR extracts; settings: one hour at 4° C., mean of multiple tests
T1 sequence (P10275 1-920): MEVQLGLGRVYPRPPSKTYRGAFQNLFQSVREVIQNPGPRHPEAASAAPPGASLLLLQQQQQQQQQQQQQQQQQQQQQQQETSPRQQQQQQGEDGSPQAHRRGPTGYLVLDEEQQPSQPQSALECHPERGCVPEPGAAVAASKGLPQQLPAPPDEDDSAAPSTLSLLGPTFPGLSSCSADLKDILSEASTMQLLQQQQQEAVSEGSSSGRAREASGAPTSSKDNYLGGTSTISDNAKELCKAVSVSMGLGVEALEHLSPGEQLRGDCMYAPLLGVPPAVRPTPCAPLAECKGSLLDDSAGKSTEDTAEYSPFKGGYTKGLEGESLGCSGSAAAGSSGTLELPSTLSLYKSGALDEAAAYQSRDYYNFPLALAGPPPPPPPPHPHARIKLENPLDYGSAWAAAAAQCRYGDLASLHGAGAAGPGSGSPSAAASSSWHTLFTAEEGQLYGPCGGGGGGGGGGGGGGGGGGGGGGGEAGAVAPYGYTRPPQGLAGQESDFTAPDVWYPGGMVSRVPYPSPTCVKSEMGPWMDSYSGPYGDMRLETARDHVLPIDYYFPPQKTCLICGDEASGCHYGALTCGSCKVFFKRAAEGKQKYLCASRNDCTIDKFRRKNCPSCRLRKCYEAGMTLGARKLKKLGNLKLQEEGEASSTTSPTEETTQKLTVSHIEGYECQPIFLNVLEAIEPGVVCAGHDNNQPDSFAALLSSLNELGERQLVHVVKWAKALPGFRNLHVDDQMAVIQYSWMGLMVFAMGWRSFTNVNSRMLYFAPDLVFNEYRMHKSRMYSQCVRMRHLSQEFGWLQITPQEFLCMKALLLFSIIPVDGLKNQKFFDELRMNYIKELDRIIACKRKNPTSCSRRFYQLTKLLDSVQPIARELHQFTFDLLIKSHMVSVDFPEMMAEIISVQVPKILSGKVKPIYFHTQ
Procedure: The description below describes how the assay was carried out.
Competitive binding analysis was performed on baculovirus/Sf9 generated hAR extracts in the presence or absence of different concentrations of test agent and a fixed concentration of ^3H-dihydrotestosterone (^3H-DHT) as tracer. This binding assay method is a modification of a protocol previously described (Liao S., et. al. J. Steroid Biochem. 20:11-17 1984). Briefly, progressively decreasing concentrations of compounds are incubated in the presence of hAR extract (Chang et al. P.N.A.S. Vol. 89, pp. […], 1992), hydroxylapatite, and 1 nM^3H-DHT for one hour at 4° C. Subsequently, the binding reactions are washed three times to completely remove excess unbound ^3H-DHT. hAR bound ^3H-DHT levels are determined in the presence of compounds (i.e. competitive binding) and compared to levels bound when no competitor is present (i.e. maximum binding). Compound binding affinity to the hAR is expressed as the concentration of compound at which one half of the maximum binding is inhibited.

androgen receptor = target: T2, androgen receptor (Homo sapiens, UniProt P10275); assay: AR Antagonist Cell Assay (MDA-MB453-MMTV clone 54-19, luciferase reporter); type: cell-based; settings: inhibition of induction by DHT (final concentration at 100 μM), 17 hr, compound 0.32-1000 nM, mean of multiple tests
T2 sequence (P10275 1-920 Q868H): T1 sequence (P10275 1-920) with Q868H
Procedure: The compounds ability to antagonize the effects of androgen on the androgen receptor were determined in a whole cell assay as described immediately below.
Experimental Procedure for AR Antagonist Cell Assay
This cell line is a stable transfected cell line with MDA-MB453 cell background (a human breast tumor cell line expressing androgen receptor). A MMTV minimal promoter containing ARE was first cloned in front of a firefly luciferase reporter gene. Then the cascade was cloned into transfection vector pUV120puro. […] Puromycin resistant stable cell line was selected.
Cell Culture Media and Reagents:
Plating medium: DMEM (phenol red free), 10% charcoal treated HyClone serum, 1% L-glutamine
Assay medium: DMEM (phenol red free), 1% charcoal treated HyClone serum, 1% L-glutamine, 1% penicillin/streptomycin
Cells are maintained in culture medium, splitting cells when they reach 80-90% confluence
To test compounds, 10,000 cells/well are plated to opaque 96 cell culture plate in 100 ul/well plating medium, culture for overnight at 37° C. in cell culture incubator
Add 10 ul/well freshly prepared DHT (final concentration at […]) to each well, incubate at 37° C. for 17 hr (overnight)
Add 50 ul/well 3× luciferase buffer, incubate at room temperature for 5 minutes, then count on Luminometer
The results are reported as the mean of multiple tests described below (the numbers of tests are indicated in the footnote). N.D. denotes that the compound was not tested.

[1] = concentration at which one half of maximum binding of 1 nM 3H-DHT to hAR is inhibited, read-out: IC50
[2] = IC50, concentration at which one half of maximum binding of 1 nM 3H-DHT to hAR is inhibited

C[C@@H](c1ccccc1)N1CC(C)(C)C(Oc2ccc(C#N)c(C(F)(F)F)c2)C1=O (mixture of isomers) [Example 69, (+)-4-[4,4-Dimethyl-2-oxo-1-(1-phenyl-ethyl)-pyrrolidin-3-yloxy]-2-trifluoromethyl-benzonitrile]
IC50 (hAR; [1]): 258 nM | IC50 (androgen receptor; read-out: IC50): 331 nM

COC(=O)c1cccc(CN2CC(C)(C)C(Oc3ccc(C#N)c(C(F)(F)F)c3)C2=O)c1 (racemic) [Example 25, (±)-3-[3-(4-Cyano-3-trifluoromethyl-phenoxy)-4,4-dimethyl-2-oxo-pyrrolidin-1-ylmethyl]-benzoic acid methyl ester]
IC50 (hAR; [2]): 48 nM | IC50 (androgen receptor; read-out: IC50): 107 nM

C[C@@H](c1ccc(F)cc1)N1CC(C)(C)[C@@H](Oc2ccc(C#N)c(C(F)(F)F)c2)C1=O (racemic) [Example 71, (±)-4-{1-[1-(4-Fluoro-phenyl)-ethyl]-4,4-dimethyl-2-oxo-pyrrolidin-3-yloxy}-2-trifluoromethyl-benzonitrile]
IC50 (hAR; [1]): 104 nM | IC50 (androgen receptor): 6 nM

CCCC(C)N1CC(C)(C)C(Oc2ccc(C#N)c(C(F)(F)F)c2)C1=O (racemic) [Example 72, (±)-4-[4,4-Dimethyl-1-(1-methyl-butyl)-2-oxo-pyrrolidin-3-yloxy]-2-trifluoromethyl-benzonitrile]
IC50 (hAR; [2]): 203 nM | IC50 (androgen receptor): 7 nM

CC1(C)CN(Cc2ccc(O)cc2)C(=O)C1Oc1ccc(C#N)c(C(F)(F)F)c1 (single isomer, unassigned) [Example 9, 4-[1-(4-Hydroxy-benzyl)-4,4-dimethyl-2-oxo-pyrrolidin-3-yloxy]-2-trifluoromethyl-benzonitrile]
IC50 (hAR; [2]): 18 nM | IC50 (androgen receptor): 46 nM

CC1(C)CN(S(C)(=O)=O)C(=O)C1Oc1ccc(C#N)c(C(F)(F)F)c1 (single isomer, unassigned) [Example 100, 4-(1-Methanesulfonyl-4,4-dimethyl-2-oxo-pyrrolidin-3-yloxy)-2-trifluoromethyl-benzonitrile]
IC50 (hAR; [2]): 12 nM | IC50 (androgen receptor): 12 nM

CSCN1CC(C)(C)C(Oc2ccc(C#N)c(C(F)(F)F)c2)C1=O (single isomer, unassigned) [Example 100B, 4-(4,4-Dimethyl-1-methylsulfanylmethyl-2-oxo-pyrrolidin-3-yloxy)-2-trifluoromethyl-benzonitrile]
IC50 (hAR; [2]): 76 nM | IC50 (androgen receptor): 24 nM

CC1(C)CN(S(=O)(=O)C2CC2)C(=O)C1Oc1ccc(C#N)c(C(F)(F)F)c1 (single isomer, unassigned) [Example 100C, 4-(1-Cyclopropanesulfonyl-4,4-dimethyl-2-oxo-pyrrolidin-3-yloxy)-2-trifluoromethyl-benzonitrile]
IC50 (hAR; [2]): 59 nM | IC50 (androgen receptor): 38 nM

CC1(C)CN(Cc2ccccc2)C(=O)C1Oc1ccc(C#N)c(C(F)(F)F)c1 (single isomer, unassigned; (+)) [Example 6, (+)-4-(1-Benzyl-4,4-dimethyl-2-oxo-pyrrolidin-3-yloxy)-2-trifluoromethyl-benzonitrile]
IC50 (hAR; [2]): 31 nM | IC50 (androgen receptor): 136 nM

CC1(C)CN(Cc2cccc(O)c2)C(=O)C1Oc1ccc(C#N)c(C(F)(F)F)c1 (single isomer, unassigned; (+)) [Example 14, (+)-4-[1-(3-Hydroxy-benzyl)-4,4-dimethyl-2-oxo-pyrrolidin-3-yloxy]-2-trifluoromethyl-benzonitrile]
IC50 (hAR; [2]): 23 nM | IC50 (androgen receptor): 99 nM

COc1cccc(C(C)N2CC(C)(C)C(Oc3ccc(C#N)c(C(F)(F)F)c3)C2=O)c1 (single isomer, unassigned; (+)) [Example 23, (+)-4-{1-[1-(3-Methoxy-phenyl)-ethyl]-4,4-dimethyl-2-oxo-pyrrolidin-3-yloxy}-2-trifluoromethyl-benzonitrile]
IC50 (hAR; [2]): 64 nM | IC50 (androgen receptor): 58 nM

CC1(C)CN(S(C)(=O)=O)C(=O)C1Oc1ccc(C#N)c(C(F)(F)F)c1 (single isomer, unassigned; (+)) [Example 96, (+)-4-(1-Methanesulfonyl-4,4-dimethyl-2-oxo-pyrrolidin-3-yloxy)-2-trifluoromethyl-benzonitrile]
IC50 (hAR; concentration at which one half of maximum binding of 1 nM 3H-DHT to hAR is inhibited): 12 nM | IC50 (androgen receptor): 36 nM

CCCC(=O)N1CC(C)(C)C(Oc2ccc(C#N)c(C(F)(F)F)c2)C1=O (single isomer, unassigned; (+)) [Example 103, (+)-4-(1-Butyryl-4,4-dimethyl-2-oxo-pyrrolidin-3-yloxy)-2-trifluoromethyl-benzonitrile (single enantiomer)]
IC50 (hAR; [1]): 130 nM | IC50 (androgen receptor; read-out: IC50): 125 nM

CC1(C)CN(C(=O)c2ccccc2)C(=O)C1Oc1ccc(C#N)c(C(F)(F)F)c1 (single isomer, unassigned; (+)) [Example 105, (+)-4-(1-Benzoyl-4,4-dimethyl-2-oxo-pyrrolidin-3-yloxy)-2-trifluoromethyl-benzonitrile]
IC50 (hAR; [1]): 252 nM | IC50 (androgen receptor): 22 nM

CC1(C)CN(Cc2ccccc2)C(=O)C1Oc1ccc(C#N)c(C(F)(F)F)c1 (centres unmarked) [Example 5, 4-(1-Benzyl-4,4-dimethyl-2-oxo-pyrrolidin-3-yloxy)2-trifluoromethyl-benzonitrile]
IC50 (hAR; [2]): 32 nM | IC50 (androgen receptor): 12 nM

CC1(C)CN(Cc2ccc(O)cc2)C(=O)C1Oc1ccc(C#N)c(C(F)(F)F)c1 (centres unmarked) [Example 8, 4-[1-(4-Hydroxy-benzyl)-4,4-dimethyl-2-oxo-pyrrolidin-3-yloxy]-2-trifluoromethyl-benzonitrile]
IC50 (hAR; [2]): 17 nM | IC50 (androgen receptor): 33 nM
